Measured values as given in BindingDB's records for doi:10.7270/Q2S46QSD (D3R/Abbott, 2015).

Target: Mitogen-activated protein kinase 1 (Homo sapiens, UniProt P28482)
Test: Photometric_Method2

Mitogen-activated protein kinase 1, sequence (P28482 whole entry): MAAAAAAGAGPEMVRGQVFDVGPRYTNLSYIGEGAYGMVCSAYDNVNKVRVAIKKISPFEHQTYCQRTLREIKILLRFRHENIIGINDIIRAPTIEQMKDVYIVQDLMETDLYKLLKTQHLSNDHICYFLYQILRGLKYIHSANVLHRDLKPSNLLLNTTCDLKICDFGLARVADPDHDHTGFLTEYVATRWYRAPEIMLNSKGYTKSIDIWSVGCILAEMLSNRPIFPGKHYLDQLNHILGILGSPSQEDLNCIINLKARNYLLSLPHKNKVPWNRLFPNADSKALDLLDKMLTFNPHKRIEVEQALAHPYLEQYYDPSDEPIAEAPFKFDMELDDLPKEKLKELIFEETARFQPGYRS

SMILES	Ki [nM]
Cc1cnc(NC2CCOCC2)nc1-c1c[nH]c(C(=O)N[C@H](CO)c2cccc(Cl)c2)c1 [erk000584]	7.9
Cc1cnc(Nc2cccc3c2OC(F)(F)O3)nc1-c1c[nH]c(C(=O)N[C@H](CO)c2ccccc2)c1 [erk000591]	7.9
Cc1cccc([C@@H](CO)NC(=O)c2cc(-c3nc(Nc4cccc(F)c4C)ncc3C)c[nH]2)c1 [erk000601]	7.9
Cc1cnc(N[C@H]2CCC[C@H]2O)nc1-c1c[nH]c(C(=O)N[C@H](CO)c2cccc(Cl)c2)c1 [erk000612]	7.1
Cc1cnc(NN2CCCC2)nc1-c1c[nH]c(C(=O)N[C@H](CO)c2cccc(Cl)c2)c1 [erk000624]	7.1
Cc1cnc(Nc2ccc(Cl)cc2Cl)nc1-c1c[nH]c(C(=O)N[C@H](CO)c2ccccc2)c1 [erk000657]	7.9
Cc1cnc(N[C@@H](CO)CC(F)(F)F)nc1-c1c[nH]c(C(=O)N[C@H](CO)c2cccc(Cl)c2)c1 [erk000675]	7.9
CCOC(=O)N1CCC(Nc2ncc(Cl)c(-c3c[nH]c(C(=O)N[C@H](CO)c4cccc(Cl)c4)c3)n2)CC1 [erk000703]	7.1

Results, then the compound that gave them:

Ki [nM]	SMILES
7.1	Cc1cnc(N[C@H]2CCCC[C@H]2O)nc1-c1c[nH]c(C(=O)N[C@H](CO)c2ccccc2)c1 [erk000465]
7.1	Cc1cnc(NN(C)C)nc1-c1c[nH]c(C(=O)N[C@H](CO)c2ccccc2)c1 [erk000505]
7.1	Cc1cnc(NCCc2ccccc2)nc1-c1c[nH]c(C(=O)N[C@H](CO)c2ccccc2)c1 [erk000578]
7.1	Cc1ccc(Nc2ncc(C)c(-c3c[nH]c(C(=O)N[C@H](CO)c4cccc(Cl)c4)c3)n2)cc1 [erk000585]
